US7179816B2, “Chemical derivatives and their application as antitelomerase agents” (Aventis Pharma S.A., priority 2001, dated 2007)

Experiments:
[1] = test system: human telomerase (extract of HL60 cells enriched in telomerase activity); assay: TRAP assay of telomerase activity (extension of oligonucleotide TS, PCR amplification); format: biochemical; details: compounds at 10, 1, 0.1 and 0.01 μg/ml
Description: The antitelomerase biological activity is determined by the following experimental protocol:
Preparation of the Extract Enriched in Human Telomerase Ectivity:
The leukemia line HL60 is obtained from ATCC (American Type Culture Collection, Rockville USA). The cells are cultured in suspension in RPMI 1640 medium containing L-Glutamine at 2 mM, Penicillin 200 U/ml, streptomycin 200 μg/ml, gentamycin 50 μg/ml and supplemented with 10% heat-inactivated fetal calf serum.
An aliquot of 10^5 cells is centrifuged at 3000×G and the supernatant discarded. […]
The samples are then analyzed by electrophoresis on 12% acrylamide gel in a 1×TBE buffer for 1 hour at a voltage of 200 volts, with the aid of a Novex electrophoresis system. […]
The analysis and the quantification of the reaction products are carried out with the aid of an InstantImager apparatus (Pacard).
For each compound concentration tested, the results are expressed as percentage inhibition of the reaction and calculated from the untreated enzymatic control and from the enzyme-free sample (blank) according to the following formula: (Compound Value−blank value/enzymatic control value−blank value)×100. […]
A compound is considered to be active as an antitelomerase agent when the quantity inhibiting 50% of the telomerase reaction is less than 5 μM.

[2] = test system: G-quadruplex of oligonucleotide GGGTTAGGGTTAGGGTTAGGG (3.5 repeats of the human telomeric motif); assay: G-quadruplex stabilisation, fluorescence Tm of FAM+DABCYL oligonucleotide; format: binding; details: test product 1 μM, oligonucleotide 0.2 μM, 0.1 M LiCl, 10 mM cacodylate buffer pH 7.6; reference Tm 44° C.
Excerpt: The G-quadruplex stabilizing activity may be determined by a method using the formation of a complex with fluorescein, as described below.
All the oligonucleotides, modified or otherwise, were synthesized by Eurogentec SA, Seraing, Belgium. The oligonucleotide FAM+DABCYL carries the catalog reference OL-0371–0802. It has the sequence: […] (SEQ ID NO:1) corresponding to 3.5 repeats of the human telomeric motif (strand rich in G). The fluorescein is chemically attached to the 5′ end, and the DABCYL to the 3′ end, as described by Eurogentec. The concentration of the samples is checked by spectrophotometry, recording the absorbance spectrum between 220 and 700 nm and using the molar extinction coefficient provided by the supplier. […]
All the measurements of fluorescence were carried out on a Spex Fluorolog DM1B apparatus, using an excitation line width of 1.8 nm and an emission line width of 4.5 nm. […] The oligonucleotide alone was analyzed at 20, 30, 40, 50, 60, 70 and 80° C. The emission spectra are recorded using an excitation wavelength of 470 nm. The excitation spectra are recorded using either 515 nm or 588 nm as emission wavelength. […] A high extinction (80–90%) of the fluorescence of fluorescein at room temperature is observed, in agreement with an intramolecular folding of the oligonucleotide at 20° C. in the form of a G-quadruplex. […]

Molecule | IC50 [1] | G-4 ΔTm [2]
CSc1nc(NCCN(C)C)nc(Nc2ccc3nc(C)cc(N)c3c2)n1 [Example 1-1, N6-[6-(2-dimethylaminoethylamino)-4-methylsulfanyl-[1,3,5]triazin-2-yl]-2-methylquinoline-4,6-diamine] | 790 nM | 6 °C
N6-[(6-(3-dimethylaminopropylamino)-4-diethylamino-[1,3,5]triazin-3-yl]-2-methylquinoline-4,6-diamine [Example 2-1] | 900 nM | 7.9 °C
